These are literature values, as cited in patent US20100056493A1, “MODIFIED RELEASE PHARMACEUTICAL COMPOSITION AND A PROCESS OF MAKING THE SAME” (priority 2007, published 2010).

Data set [1] relates to de novo kidney allograft recipients. Conditions: P=NS.
For data set [2] the following is noted: given in brackets after the drug name; no method stated.
[3] abbreviates: 720 mg mycophenolic acid as mycophenolate sodium twice daily or 1000 mg MMF twice daily.

As for `COc1c(C)c2c(c(O)c1C/C=C(\C)CCC(=O)OCCN1CCOCC1)C(=O)OC2` [MMF, mycophenolate mofetil], in data set [1] (setting [3]), the “frequency of dosage reductions, discontinuation, or temporary interruptions of therapy secondary to GI toxicities” value is given as 17.6% and the “incidence of GI adverse events” value is reported as 78.1%. For the same compound, the “overall incidence of efficacy failure (biopsy-proven acute rejection, graft loss, death, or loss to follow-up)” value in data set [1] (at 6 months, 720 mg mycophenolic acid as mycophenolate sodium twice daily (n=213) or 1000 mg MMF twice daily (n=210)) is given as 28.1%. In addition, in data set [1] (at 12 months, 720 mg mycophenolic acid as mycophenolate sodium twice daily or 1000 mg MMF twice daily), the BPAR rates is reported as 24.3%. Moreover, in data set [2], the pH is given as 7.2.
Take `O=C(O)/C=C/C(=O)O.OCCOCCN1CCN(C2=Nc3ccccc3Sc3ccccc32)CC1` [Quetiapine fumarate, 2-[2-(4-dibenzo[b,f][1,4]thiazepin-11-yl-1-piperazinyl)ethoxy]-ethanol fumarate]: the pH in data set [2] is listed as 5.4.
For `COc1c(C)c2c(c(O)c1C/C=C(\C)CCC(=O)O)C(=O)OC2` [mycophenolate sodium], in data set [1] (setting [3]), the “frequency of dosage reductions, discontinuation, or temporary interruptions of therapy secondary to GI toxicities” value was 13.1% and the “incidence of GI adverse events” value is recorded as 78.4%.
